Experimental data taken from paper PMC9699003, “Arene Variation of Highly Cytotoxic Tridentate Naphthoquinone-Based Ruthenium(II) Complexes and In-Depth In Vitro Studies” (Pharmaceutics, 2022).

How the values were obtained:
Format in all cases: cell-based, human
SW480 cells [1] = experiment: Cell cycle distribution (PI staining, flow cytometry); settings: SW480, 24 h
Method: (§1) For the flow-cytometric determination of cell cycle distribution, CH1/PA-1 (8 × 10^4 cells/well) and SW480 (1.2 × 10^5 cells/well) cells were seeded into 12-well plates (CytoOne, tissue culture treated) in 1 mL supplemented MEM. In the first 24 h, the cells were allowed to settle and resume exponential growth. […] Gemcitabine (Sigma-Aldrich, 0.01 and 0.05 µM) and etoposide (Sigma-Aldrich, 0.25, 0.5 and 1 µM) were used as positive controls. After removal of the treatment medium, cells were washed with 1 mL PBS and trypsinized. Cells were collected in Eppendorf tubes and centrifuged (300 g, 3 min), and the supernatant was discarded. In the following step, cells were washed with 1 mL PBS and resuspended in 500 µL PI/HFS buffer (0.1% v/v Triton X-100, 0.1% w/v sodium citrate, in PBS) containing 25 µg/mL propidium iodide (PI, 1.0 mg/mL, Sigma-Aldrich). The staining was carried out overnight at 4 °C in the dark, and 200 µL of the cell suspension was loaded into 96-well round bottom plates (Falcon). Samples were measured with a Millipore Guava easyCyte 8HT flow cytometer with GuavaSoft™ software in the InCyte-modus, and 10,000 events/sample were detected. Data were analyzed with FlowJo software v 10.8.1 (Tree Star, Ashland, OR, USA) using Watson algorithm. Percentages of cells in the three cell cycle phases (G1/G0, S and G2/M) were calculated by integrating the resulting histograms of fluorescence signals (Figures S29 and S30). Experiments were repeated at least three times. For statistical evaluation, an unpaired t-test with Welch’s correction was performed by using GraphPad PRISM software.

CH1/PA-1 cells = experiment: as above; settings: CH1/PA-1, 24 h
Method: as §1

[2] = test system: CH1/PA-1 ovarian teratocarcinoma cells; experiment: MTT assay (cytotoxicity); settings: CH1/PA-1, MTT
Method: (§2) CH1/PA-1 ovarian teratocarcinoma cells (provided by L. R. Kelland, CRC Centre for Cancer Therapeutics, Institute of Cancer Research, Sutton, UK; confirmed by STR profiling as PA-1 ovarian teratocarcinoma cells at Multiplexion, Heidelberg, Germany), SW480 colon carcinoma and A549 non-small cell lung cancer cells (both obtained from the American Type Culture Collection, Manassas, VA, USA) were grown as adherent cultures in 75 cm² culture flasks (CytoOne, Starlab, Hamburg, Germany) by using minimal essential medium (MEM) supplemented with 1 mM sodium pyruvate, 4 mM L-glutamine, 1% (v/v) nonessential amino acids from 100-fold stock (all purchased from Sigma-Aldrich) and 10% heat-inactivated fetal bovine serum (BioWest, Nuaillé, France). Cells were maintained under standard culture conditions with 5% CO2 at 37 °C in a humidified atmosphere.
(§3) The 3-(4,5-dimethylthiazol-2-yl)-2,5-diphenyl-2H-tetrazolium bromide (MTT, Acros Organics, Geel, Belgium) assay was used to detect the cytotoxicity of the compounds after 24 h and 96 h incubation. In brief, cells were harvested from culture flasks and the following cell numbers (each in 100 µL) were seeded into 96-well culture plates (CytoOne, tissue culture treated, Starlab, Hamburg, Germany) for 24 h incubation: 1 × 10^4 (CH1/PA-1), 1 × 10^4 (SW480) and 1.5 × 10^4 (A549) cells per well; and for 96 h incubation: 1 × 10^3 (CH1/PA-1), 2 × 10^3 (SW480) and 3 × 10^3 (A549) cells per well. After 24 h, cells resuming their exponential growth rate were treated with test compounds at nine concentrations obtained by serial two-fold dilution. Stock solutions were prepared in DMSO (20 mM or 40 mM) and diluted in supplemented MEM. An amount of 100 µL of each concentration was added to the plates in triplicates and cells were exposed for 24 or 96 h. Afterward, the medium was replaced with 100 µL of MTT solution (5 mg/mL) in phosphate-buffered saline (PBS, Sigma-Aldrich), diluted 1:7 in RPMI 1640 medium (supplemented with 4 mM L-glutamine and 10% heat-inactivated FBS). Upon cell-viability-dependent conversion of the yellow, water-soluble tetrazolium salt into purple formazan products for 4 h, the crystals were dissolved in 150 µL DMSO. The absorbance of the resulting solutions, which is directly proportional to the number of viable cells, was measured at 550 nm (and at 690 nm as a reference) with a microplate reader (ELx808, BioTek, Winoosky, VT, USA) and Gen5TM 3.08 software (BioTek). Blank-corrected optical densities were subjected to graphical evaluation and interpolation of IC50 values. At least three biologically and technically independent experiments were performed.

[3] = test system: SW480 colon carcinoma cells; experiment: MTT assay (cytotoxicity)
Method: as §2, §3

[4] = test system: A549 non-small cell lung cancer cells; experiment: MTT assay (cytotoxicity)
Method: as §2, §3

SW480 cells [5] = experiment: Colony formation assay; settings: SW480, 11 days, relative to untreated control
Method: For the colony formation assay, SW480 cells were seeded at a density of 350 cells/2 mL into each well of 6-well plates (CytoOne, tissue culture treated) and left to adhere for 24 h. To determine the long-term effects of the test compounds, the cells were exposed to them for 11 days at 37 °C and 5% CO2. After incubation, the wells were gently washed with 1 mL cold PBS and the colonies were fixed with 1 mL cold (4 °C) 100% methanol (Thermo Fisher, Waltham, MA, USA) for 30 min at 4 °C and washed with 1 mL PBS again. The fixed colonies were stained with 1 mL of 0.5% w/v crystal violet (Sigma-Aldrich) in methanol for 2 min and the plates were washed under tap water. After drying the plates, images of the wells were captured, and colonies were counted with the colony counting function of Fusion Fx7 software (Vilber Lourmat, Collégien, France). Results were normalized to untreated controls. Data are averaged from at least three independent experiments.

Structure (SMILES) | Cells in G1/G0 phase (SW480 cells [1]; 0.31 µM) [%] | Cells in G2/M phase (SW480 cells [1]; 0.31 µM) [%] | Cells in S phase (SW480 cells [1]; 0.31 µM) [%] | Cells in G1/G0 phase (SW480 cells [1]; 0.63 µM) [%] | Cells in G2/M phase (SW480 cells [1]; 0.63 µM) [%] | Cells in S phase (SW480 cells [1]; 0.63 µM) [%] | Cells in G1/G0 phase (CH1/PA-1 cells; 50 µM) [%] | Cells in G2/M phase (CH1/PA-1 cells; 50 µM) [%] | Cells in S phase (CH1/PA-1 cells; 50 µM) [%] | IC50 ([2]; 24 h exposure) [µM] | IC50 ([2]; 96 h exposure) [µM] | IC50 ([3]; 24 h exposure) [µM] | IC50 ([3]; 96 h exposure) [µM] | IC50 ([4]; 24 h exposure) [µM] | IC50 ([4]; 96 h exposure) [µM] | Number of colonies (SW480 cells [5]; 0.31 µM) [%] | Number of colonies (SW480 cells [5]; 0.63 µM) [%] | Cells in G1/G0 phase (SW480 cells [1]; 0.16 µM) [%] | Cells in G2/M phase (SW480 cells [1]; 0.16 µM) [%] | Cells in S phase (SW480 cells [1]; 0.16 µM) [%] | also measured
CC1=C([O-])C([O-])(n2cccn2)c2ccccc2C1=O.[Ru+2].c1ccc2c(c1)CCC2 (racemic) [Compound 4] | 24.7 ± 9.2 | 36.1 ± 3.0 | 42.1 ± 7.1 | 19.0 ± 4.6 | 45.8 ± 4.2 | 42.0 ± 3.5 | 25.1 ± 4.7 | 39.8 ± 2.9 | 38.4 ± 1.7 | 146 ± 18 | 88 ± 10 | 3.5 ± 1.6 | 0.52 ± 0.09 | 119 ± 21 | 9.1 ± 1.5 | 22 ± 5 | 5.1 ± 2.1 |  |  |  | Cells in G1/G0 phase (SW480 cells [1]; 1.25 µM): 20.7 ± 5.3%; Cells in G2/M phase (SW480 cells [1]; 1.25 µM): 25.0 ± 5.8%; Cells in S phase (SW480 cells [1]; 1.25 µM): 57.1 ± 4.5%; Cells in G1/G0 phase (CH1/PA-1 cells; 100 µM): 23.9 ± 4.7%; Cells in G2/M phase (CH1/PA-1 cells; 100 µM): 42.2 ± 4.7%; Cells in S phase (CH1/PA-1 cells; 100 µM): 38.3 ± 2.3%; Cells in G1/G0 phase (CH1/PA-1 cells; 200 µM): 24.5 ± 3.8%; Cells in G2/M phase (CH1/PA-1 cells; 200 µM): 40.0 ± 3.8%; Cells in S phase (CH1/PA-1 cells; 200 µM): 39.1 ± 3.9%; Number of colonies (SW480 cells [5]; 1.25 µM): 0.82 ± 0.85%
CC1=C([O-])C([O-])(n2cccn2)c2ccccc2C1=O.[Ru+2].c1ccc(-c2ccccc2)cc1 (racemic) [Compound 5] |  |  |  |  |  |  | 17.5 ± 1.8 | 46.8 ± 1.8 | 39.3 ± 1.4 | 42 ± 4 | 30 ± 3 | 0.77 ± 0.24 | 0.072 ± 0.019 | 4.3 ± 1.6 | 1.2 ± 0.2 |  |  | 15.5 ± 1.3 | 27.4 ± 1.3 | 57.1 ± 0.1 | Cells in G1/G0 phase (SW480 cells [1]; 0.039 µM): 32.3 ± 12.9%; Cells in G2/M phase (SW480 cells [1]; 0.039 µM): 30.5 ± 6.2%; Cells in S phase (SW480 cells [1]; 0.039 µM): 38.8 ± 7.2%; Cells in G1/G0 phase (SW480 cells [1]; 0.078 µM): 19.5 ± 4.3%; Cells in G2/M phase (SW480 cells [1]; 0.078 µM): 35.9 ± 3.5%; Cells in S phase (SW480 cells [1]; 0.078 µM): 46.9 ± 7.7%; Cells in G1/G0 phase (CH1/PA-1 cells; 12.5 µM): 20.1 ± 5.0%; Cells in G2/M phase (CH1/PA-1 cells; 12.5 µM): 39.1 ± 5.4%; Cells in S phase (CH1/PA-1 cells; 12.5 µM): 43.1 ± 6.3%; Cells in G1/G0 phase (CH1/PA-1 cells; 25 µM): 19.2 ± 4.8%; Cells in G2/M phase (CH1/PA-1 cells; 25 µM): 46.7 ± 1.9%; Cells in S phase (CH1/PA-1 cells; 25 µM): 38.0 ± 4.0%; Number of colonies (SW480 cells [5]; 0.039 µM): 19 ± 7%; Number of colonies (SW480 cells [5]; 0.078 µM): 4.0 ± 2.0%; Number of colonies (SW480 cells [5]; 0.16 µM): 0.22 ± 0.48%
CC1=C([O-])C([O-])(n2cccn2)c2ccccc2C1=O.Cc1c(C)c(C)c(C)c(C)c1C.[Ru+2] (stereo not drawn) [Compound 6] | 15.0 ± 3.8 | 32.6 ± 4.7 | 53.7 ± 4.9 | 24.2 ± 2.0 | 25.6 ± 4.5 | 53.5 ± 2.6 | 22.8 ± 4.7 | 40.8 ± 2.5 | 38.6 ± 4.2 | 57 ± 16 | 35 ± 4 | 2.8 ± 1.6 | 0.27 ± 0.06 | 38 ± 21 | 3.4 ± 0.6 | 9.2 ± 3.2 | 1.2 ± 1.1 | 23.2 ± 4.1 | 35.7 ± 0.7 | 43.7 ± 4.8 | Cells in G1/G0 phase (CH1/PA-1 cells; 25 µM): 25.1 ± 2.5%; Cells in G2/M phase (CH1/PA-1 cells; 25 µM): 44.2 ± 7.1%; Cells in S phase (CH1/PA-1 cells; 25 µM): 35.0 ± 0.9%; Cells in G1/G0 phase (CH1/PA-1 cells; 75 µM): 25.6 ± 3.5%; Cells in G2/M phase (CH1/PA-1 cells; 75 µM): 38.4 ± 3.7%; Cells in S phase (CH1/PA-1 cells; 75 µM): 39.4 ± 2.5%; Number of colonies (SW480 cells [5]; 0.16 µM): 28 ± 12%
